Molecular target: T1, F508del (Homo sapiens, UniProt P13569, DEL508-508)
T1 construct: expressed in transfected cells
Experiment: Protocol 1: membrane potential optical assay (FLIPR III, voltage sensing dye), identification of potentiator compounds
Type: cell-based
Details: Table 3, compounds of Table 1
In short: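 Mouse NIH 3T3 fibroblasts stably expressing F508del, temperature-corrected at 27 °C for 24 h, pretreated with compound, then loaded with voltage-sensing redistribution dye. Forskolin was added in a single step with a chloride gradient (chloride-free gluconate bath; Bath Solution #1 HEPES pH 7.4). Membrane-potential fluorescence read on FLIPR III.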

T1 sequence (P13569 with tags, fused parts or gaps DEL508-508): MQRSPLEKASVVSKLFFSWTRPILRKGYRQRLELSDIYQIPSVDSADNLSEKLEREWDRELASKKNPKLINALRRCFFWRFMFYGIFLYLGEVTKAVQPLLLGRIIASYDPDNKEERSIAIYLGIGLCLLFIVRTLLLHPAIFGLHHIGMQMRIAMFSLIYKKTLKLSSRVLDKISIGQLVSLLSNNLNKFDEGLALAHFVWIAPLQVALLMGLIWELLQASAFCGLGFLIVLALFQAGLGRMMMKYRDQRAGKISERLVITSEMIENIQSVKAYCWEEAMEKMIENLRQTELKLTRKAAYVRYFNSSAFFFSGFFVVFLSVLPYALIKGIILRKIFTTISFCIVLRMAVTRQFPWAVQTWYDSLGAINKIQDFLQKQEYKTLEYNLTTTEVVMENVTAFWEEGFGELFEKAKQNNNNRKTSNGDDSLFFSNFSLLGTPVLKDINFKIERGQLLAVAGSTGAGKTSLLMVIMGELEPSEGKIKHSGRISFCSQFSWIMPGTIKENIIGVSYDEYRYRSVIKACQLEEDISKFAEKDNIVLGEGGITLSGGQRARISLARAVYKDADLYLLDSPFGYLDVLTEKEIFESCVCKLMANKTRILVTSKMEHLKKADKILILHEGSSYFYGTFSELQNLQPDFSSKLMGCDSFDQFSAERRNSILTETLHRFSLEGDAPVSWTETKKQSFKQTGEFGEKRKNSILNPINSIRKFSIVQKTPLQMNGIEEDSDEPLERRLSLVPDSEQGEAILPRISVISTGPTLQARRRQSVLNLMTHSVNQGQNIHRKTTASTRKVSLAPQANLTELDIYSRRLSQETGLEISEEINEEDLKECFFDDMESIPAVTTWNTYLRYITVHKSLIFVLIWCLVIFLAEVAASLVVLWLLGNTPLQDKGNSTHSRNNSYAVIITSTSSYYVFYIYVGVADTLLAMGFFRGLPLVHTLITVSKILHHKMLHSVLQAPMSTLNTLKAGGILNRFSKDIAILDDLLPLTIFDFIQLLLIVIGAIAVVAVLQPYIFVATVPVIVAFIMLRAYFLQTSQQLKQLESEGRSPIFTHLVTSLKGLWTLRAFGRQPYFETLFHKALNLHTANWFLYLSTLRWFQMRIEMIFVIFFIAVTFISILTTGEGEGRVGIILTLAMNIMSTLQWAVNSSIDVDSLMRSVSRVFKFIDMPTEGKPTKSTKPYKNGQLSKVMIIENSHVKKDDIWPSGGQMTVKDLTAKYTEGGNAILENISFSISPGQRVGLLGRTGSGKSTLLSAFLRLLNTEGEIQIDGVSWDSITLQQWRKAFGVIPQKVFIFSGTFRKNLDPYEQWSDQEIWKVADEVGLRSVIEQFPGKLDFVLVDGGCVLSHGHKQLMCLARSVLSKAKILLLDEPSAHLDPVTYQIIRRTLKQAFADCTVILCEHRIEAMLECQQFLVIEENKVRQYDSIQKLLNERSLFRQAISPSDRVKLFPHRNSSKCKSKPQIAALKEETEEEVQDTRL

Row | SMILES | EC30
1 | CC(C)COc1cc(F)cc(-c2ccc(C(=O)NS(=O)(=O)c3cccc(N)n3)c(N3[C@@H]4CCC[C@H]3CC4)n2)c1 [Compound 934, N-[(6-amino-2-pyridyl)sulfonyl]-2-[(1R,5S)-8-azabicyclo[3.2.1]octan-8-yl]-6-(3-fluoro-5-isobutoxy-phenyl)pyridine-3-carboxamide] | +++ (“+++” means <3 uM)
2 | CC(C)Oc1ccc(-c2ccc(C(=O)NS(=O)(=O)c3cccc(N)n3)c(NC3CCc4ccccc43)n2)cn1 (stereo not drawn) [Compound 935, N-[(6-amino-2-pyridyl)sulfonyl]-2-(indan-1-ylamino)-6-(6-isopropoxy-3-pyridyl)pyridine-3-carboxamide] | ++ (“++” means between 3 uM and 10 uM)
3 | Cc1cc(C)c(Oc2nc(-c3ccc4ccn(C)c4c3)ccc2C(=O)NS(=O)(=O)c2ccc[nH]c2=O)c(C)c1 [Compound 936, 6-(1-methylindol-6-yl)-N-[(2-oxo-1H-pyridin-3-yl)sulfonyl]-2-(2,4,6-trimethylphenoxy)pyridine-3-carboxamide] | ++ (“++” means between 3 uM and 10 uM)
4 | Cc1cc(C)c(Oc2nc(C3=CCCCO3)ccc2C(=O)NS(=O)(=O)c2cccc(N)n2)c(C)c1 [Compound 937, N-[(6-amino-2-pyridyl)sulfonyl]-6-(3,4-dihydro-2H-pyran-6-yl)-2-(2,4,6-trimethylphenoxy)pyridine-3-carboxamide] | +++ (“+++” means <3 uM)
5 | CC(C)COc1cc(-c2ccc(C(=O)NS(=O)(=O)c3ccc[nH]c3=O)c(N3CCC(C)CC3)n2)ccc1Cl [Compound 941, 6-(4-chloro-3-isobutoxy-phenyl)-2-(4-methyl-1-piperidyl)-N-[(2-oxo-1H-pyridin-3-yl)sulfonyl]pyridine-3-carboxamide] | +++ (“+++” means <3 uM)
6 | CC(C)COc1cc(F)cc(-c2ccc(C(=O)NS(=O)(=O)c3ccn[nH]3)c(N3C[C@H](C)C[C@@H](C)C3)n2)c1 [Compound 942, 2-[(3R,5R)-3,5-dimethyl-1-piperidyl]-6-(3-fluoro-5-isobutoxy-phenyl)-N-(1H-pyrazol-5-ylsulfonyl)pyridine-3-carboxamide] | +++ (“+++” means <3 uM)
7 | CC(C)COc1cc(F)cc(-c2ccc(C(=O)NS(=O)(=O)c3ccn[nH]3)c(N3CCC4(CCC4)CC3)n2)c1 [Compound 944, 2-(7-azaspiro[3.5]nonan-7-yl)-6-(3-fluoro-5-isobutoxy-phenyl)-N-(1H-pyrazol-5-ylsulfonyl)pyridine-3-carboxamide] | +++ (“+++” means <3 uM)

Other lines, results leading:

Row | EC30 | SMILES
8 | ++ (“++” means between 3 uM and 10 uM) | Cc1cc(C)c(Oc2nc(-c3cc(C)nn3C)ccc2C(=O)NS(=O)(=O)c2cccc(N)n2)c(C)c1 [Compound 938, N-[(6-amino-2-pyridyl)sulfonyl]-6-(2,5-dimethylpyrazol-3-yl)-2-(2,4,6-trimethylphenoxy)pyridine-3-carboxamide]
9 | +++ (“+++” means <3 uM) | COc1ncccc1S(=O)(=O)NC(=O)c1ccc(-c2ccccc2)nc1Oc1c(C)cc(C)cc1C [Compound 939, N-[(2-methoxy-3-pyridyl)sulfonyl]-6-phenyl-2-(2,4,6-trimethylphenoxy)pyridine-3-carboxamide]
10 | +++ (“+++” means <3 uM) | CC(C)Oc1ccc(-c2ccc(C(=O)NS(=O)(=O)c3cccc(N)n3)c(N3CCCCCC3)n2)cn1 [Compound 940, N-[(6-amino-2-pyridyl)sulfonyl]-2-(azepan-1-yl)-6-(6-isopropoxy-3-pyridyl)pyridine-3-carboxamide]
11 | + (“+” means greater than 10 uM) | COc1nccc2c1cc(C(=O)NS(=O)(=O)c1cccc(N)c1)n2Cc1c(C)cc(C)cc1C [Compound 943, N-(3-aminophenyl)sulfonyl-4-methoxy-1-[(2,4,6-trimethylphenyl)methyl]pyrrolo[3,2-c]pyridine-2-carboxamide]
12 | +++ (“+++” means <3 uM) | CCc1ccccc1-c1cnc(Oc2c(C)cc(C)cc2C)c(C(=O)NS(=O)(=O)c2cccc(N)n2)c1 [Compound 945, N-[(6-amino-2-pyridyl)sulfonyl]-5-(2-ethylphenyl)-2-(2,4,6-trimethylphenoxy)pyridine-3-carboxamide]
